Assay results reported in PMC3023844 (Planta medica, 2010).
Like-named read-outs stand apart in the source and are kept apart here.

Assays:
CYP3A = conditions: read-out: IC50 or Ki values determined previously; CYP3A inhibitors in grapefruit juice; cited from earlier work
[1] = target: recombinant CYP3A4 (rCYP3A4) (Homo sapiens, UniProt P08684); assay: IC50 of triterpenes for midazolam 1′-hydroxylation using recombinant CYP3A4
CYP3A (intestinal) [2] = target: T1, CYP3A (intestinal) (Homo sapiens, UniProt P08684); assay: in vitro; conditions: microsomes, pH 7.4, IC50, HIM as the enzyme source
CYP3A (intestinal) [3] = target: T1, CYP3A (intestinal); conditions: microsomes, pH 7.4

| IC50 (CYP3A (intestinal) [2]) | Compound | IC50 (CYP3A) | IC50 [1] | IC50 (CYP3A (intestinal) [3]) |
| --- | --- | --- | --- | --- |
|  | CC(=CCOc1c2ccoc2cc2oc(=O)ccc12)CCC(O)C(C)(C)O (centres unmarked) [6′,7′-dihydroxybergamottin] | 1 to 5 µM |  |  |
| 8.8 ± 0.9 µM | C[C@H]1[C@H](C)CC[C@]2(C(=O)O)CC[C@]3(C)C(=CC[C@@H]4[C@@]5(C)C[C@@H](O)[C@H](O)C(C)(C)[C@@H]5CC[C@]43C)[C@H]12 [Corosolic acid (3), 2α,3β-dihydroxyurs-12-en-28-oic acid] |  | 4.3 ± 0.3 µM |  |
|  | CC1(C)CC[C@]2(C(=O)O)CC[C@]3(C)C(=CC[C@@H]4[C@@]5(C)C[C@@H](O)[C@H](O)C(C)(C)[C@@H]5CC[C@]43C)[C@@H]2C1 [Maslinic acid (2), 2α,3β-dihydroxyolean-12-en-28-oic acid] |  | 2.8 ± 0.2 µM | 7.4 ± 0.5 µM |
